Columns and labels:
[1] = biological target: T1, human MRGPRX2 (Homo sapiens, UniProt Q96LB1); experiment: MRGPRX2 activity: IP-One HTRF antagonist assay in CHO cells versus Cortistatin-14; format: cell-based; settings: CHO cells stably expressing human MRGPRX2; versus 0.3 uM Cortistatin-14 agonist; IP-1 HTRF
T1 construct: expressed in transfected cells
T1 sequence (Q96LB1 1-330): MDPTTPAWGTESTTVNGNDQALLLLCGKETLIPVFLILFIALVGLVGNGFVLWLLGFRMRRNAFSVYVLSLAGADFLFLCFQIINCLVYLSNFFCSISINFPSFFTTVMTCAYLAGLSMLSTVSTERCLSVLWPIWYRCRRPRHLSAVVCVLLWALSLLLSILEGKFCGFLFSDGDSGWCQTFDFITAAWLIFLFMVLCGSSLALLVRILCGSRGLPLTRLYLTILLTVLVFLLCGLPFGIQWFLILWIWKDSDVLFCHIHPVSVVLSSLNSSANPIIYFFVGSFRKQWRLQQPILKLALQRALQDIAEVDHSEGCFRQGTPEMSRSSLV
Protocol: CHO cells stably transfected to express human MRGPRX2 were maintained in an incubator at 37° C. with 5% CO2 and grown in F12 (HAM) media with 10% fetal bovine serum (FBS), 1% Glutamax, 1% penicillin/streptomycin, 800 μg/mL Geneticin (G418), and 300 μg/mL Hygromycin B.
Cells were plated in a 384-well assay plate at 20,000 cells per well in 12 μL of Opti-MEM and kept in an incubator overnight. On the day of the assay, compounds solubilized at 10 mM in DMSO were added as a 10-point curve (30 uM final top concentration with 1:3 serial dilutions) using a Tecan D300E digital dispenser. Agonists were diluted in assay buffer (final concentrations of 5.7 mM Tris-HCl, 43 mM NaCl, 50 mM LiCl, pH=8) and 2 μL of the agonist Cortistatin-14 (CPC Scientific, catalog CORT-002) are added to each well. Final concentrations of agonists were 0.3 μM Cortistatin. Final concentrations of DMSO were kept consistent across the plate. Plates were incubated in the dark for 1 h at 37° C. and then for 1 h at room temperature. IP-1 standards and HTRF detection reagents were added according to the IP-One-Gq Kit purchased from Cisbio (part number 62IPAPEJ) and incubated in the dark for 1 h at room temperature. The plate was read on a Molecular Devices SpectraMax iD5 plate reader. The HTRF ratio was calculated from the raw data and graphed using GraphPad Prism to calculate an IC50 value for each compound.
The activity ranges are denoted as follows: “+++++” denotes antagonist activity <100 nM; “++++” denotes antagonist activity between 100 and 500 nM; “+++” denotes activity between 501 and 1000 nM; “[…]” denotes activity between 1001 and 2500 nM; and “+” denotes activity >2500 nM

[2] = tested on: Human LAD2 cells; experiment: Mast Cell Beta-Hexosaminidase Release Assay; format: cell-based; settings: 500 nM Cortistatin-14, read-out: MRGPRX2 Antagonist Activity
Protocol: Human LAD2 cells (NIH) were maintained in an incubator at 37° C. with 5% CO2 and cultured in StemPro-34 serum-free media (Gibco 10639011) supplemented with 2 mM L-glutamine, 100 U/ml penicillin, […] streptomycin and 100 ng/ml SCF (Invitrogen PEP0860), at a concentration of 2-5×10^5 cells/mL, with hemidepletion every 1-2 weeks.
Cells were transferred to SCF-Free medium at 2.5×10^5 cells/mL and kept in an incubator overnight. On the day of the assay, cells were washed twice in Assay Buffer (final concentrations 10 mM HEPES, 137 mM NaCl, 5.6 mM D-glucose, 2.7 mM KCl, 1 mM MgCl, 1.8 mM CalCl2, 0.4 mM Na2HPO4·7H2O, 0.04% BSA, pH=7.4) and plated in a 96-well v-bottom plate at 20,000 cells per well in 80 μL Assay Buffer. Antagonist compounds solubilized at 10 mM in DMSO were diluted in Assay Buffer to 10× final desired concentrations as a 10-point curve (10 μM final top concentration with 1:3 serial dilutions) and 10 μL added per well. Plates were then incubated for 1 hour at 37° C. Agonists were diluted in Assay Buffer to 10× desired concentrations and 10 μL of the appropriate agonist added to each well. The final concentration of Cortistatin-14 (Tocris 3374) used in antagonist assays was 500 nM. Final concentrations of DMSO were kept consistent across the plate. Plates were then incubated in a warm air oven for 30 minutes at 37° C., followed by centrifugation at 4° C. for 5 minutes at 450×g. 50 μL supernatant from each well was then transferred to a 96-well flat bottom plate containing 100 μL substrate solution per well (3.5 mg/mL p-Nitrophenyl-N-acetyl-β-D-glucosaminide (Sigma 487052) in Citrate Buffer containing a final concentration of 40 mM Citric Acid, 20 mM Na2HPO4·7H2O, pH=4.5). To the cell pellets left in the remaining assay buffer, 150 μL 0.1% Triton-X-100 was then added to each well, resuspended by pipetting up and down, and 50 μL cell lysates transferred to a second 96-well flat bottom plate containing 100 μL substrate solution per well. Plates containing transferred supernatant and cell lysates were then incubated in a warm air oven for 90 minutes at 37° C. After incubation, 50 μL of 400 mM Glycine buffer (pH 10.7) was added into each well and the plate was read on a Molecular Devices SpectraMax iD5 plate reader (absorbance at 405 nm with reference filter at 620 nm). After background subtraction, the percentage degranulation (percent beta-hexosaminidase release) was calculated as 100×(supernatant values)/(supernatant+lysate values), followed by analysis using GraphPad Prism software to calculate an IC50 value for each compound.
The activity ranges are denoted as follows: “+++++” denotes antagonist activity <100 nM; “++++” denotes antagonist activity between 100 and 500 nM; “+++” denotes activity between 501 and 1000 nM; “++” denotes activity between 1001 and 2500 nM; and “+” denotes activity >2500 nM.

[3] = Mouse Pharmacokinetics Studies (50 mg/kg oral gavage, plasma LC-MS/MS); format: in vivo; settings: Male C57BL/6 mice, non-fasted; for AUC(0-t) / Cmax / Tmax: mouse; for Tmax: read-out: PK: Tmax
Protocol: Compounds were formulated in 5% DMSO, 5% Solutol, and 90% PBS without Ca and Mg (pH 7.4) at a concentration of 5 mg/mL. Male C57BL/6 mice (n=3/compound) were administered a 50 mg/kg dose of each compound by oral gavage under a non-fasted condition. Blood samples were collected via the saphenous vein onto K2-EDTA at 0.25, 0.5, 1, 2, 4, 8 and 24 hours after dosing, and plasma was prepared and stored at −80° C. until analysis. Plasma sample preparation for analysis was done by protein precipitation using acetonitrile (including Verapamil as an internal standard) followed by centrifugation. Compound concentrations were determined in extracted plasma using LC-MS/MS relative to a 12-point standard curve covering the 1 to 4000 nM range. Non-compartmental analysis using Phoenix WinNonlin was used to estimate pharmacokinetic parameters including area under the curve, clearance, and half-life. The administered dose was confirmed by analysis of residual dosing material by UPLC-UV relative to a single point calibration sample.

Compound	IC50 [1] [nM]	IC50 [2] [nM]	AUC 0-24 [3] [µM·h]	AUC(0-t) [3] [µM·h]	Cmax [3] [µM]	Tmax [3] [h]
CS(=O)(=O)Nc1cccc(C(=O)N[C@@H]2CCC[C@H](Nc3cc(C(F)(F)F)nc4ccc(Cl)cc34)C2)c1 (stereo in doubt) [Example 14, N-((1R,3S)-3-((6-chloro-2-(trifluoromethyl)quinolin-4-yl)amino)cyclohexyl)-3-(methylsulfonamido)benzamide]	< 100	< 100	–	–	–	–
COc1ccc(C(=O)N[C@@H]2CCC[C@H](Nc3cc(C(F)(F)F)nc4ccc(Cl)cc34)C2)cc1 [Example 1, N-((1R,3S)-3-((6-chloro-2-(trifluoromethyl)quinolin-4-yl)amino)cyclohexyl)-4-methoxybenzamide]	–	< 100	78	78	6.1	8
COc1ccc(C(=O)N[C@@H]2CCC[C@H](Nc3cc(C(F)(F)F)nc4ccc(C)cc34)C2)cc1 [Example 1-3]	< 100	100 to 500	83	83	13	0.83
O=C(N[C@@H]1CCC[C@H](Nc2cc(C(F)(F)F)nc3ccccc23)C1)c1ccc(F)cc1 [Example 1-8]	–	> 2500	650	650	48	8
N#Cc1cccc(C(=O)N[C@@H]2CCC[C@H](Nc3cc(C(F)(F)F)nc4ccccc34)C2)c1 [Example 3-4]	–	1000 to 2500	230	230	30	3.3
O=C(N[C@@H]1CCC[C@H](Nc2cc(C(F)(F)F)nc3ccc(Cl)cc23)C1)c1cccc2ncsc12 [Example 4-225]	< 100	< 100	–	–	–	–
CNc1ccc(C(=O)N[C@@H]2CCC[C@H](Nc3cc(C(F)(F)F)nc4ccc(F)cc34)C2)cc1 [Example 4-303]	< 100	< 100	–	–	–	–
CCS(=O)(=O)Nc1cccc(C(=O)N[C@@H]2CCC[C@H](Nc3cc(C(F)(F)F)nc4ccc(F)cc34)C2)c1 [Example 4-304]	< 100	< 100	–	–	–	–
Cn1cc(C(=O)N[C@@H]2CCC[C@H](Nc3cc(C(F)(F)F)nc4ccc(Cl)cc34)C2)cn1 [Example 4-400]	< 100	< 100	640	640	61	1.3
COc1ccc(C(=O)N[C@@H]2CCC[C@H](Nc3cc(C(F)(F)F)nc4ccc(Cl)cc34)C2)cn1 [Example 4-414]	< 100	< 100	140	140	11	4
O=C(N[C@@H]1CCC[C@H](Nc2cc(C(F)(F)F)nc3ccc(Cl)cc23)C1)c1ccc(B(O)O)cc1 [Example 4-430]	< 100	< 100	–	–	–	–
O=C(N[C@@H]1CCC[C@H](Nc2cc(C(F)(F)F)nc3ccc(Cl)cc23)C1)N1CC2(CC2)C1 [Example 8-9]	< 100	100 to 500	–	–	–	–
Nc1ncc(C(=O)N[C@@H]2CCC[C@H](Nc3cc(C(F)(F)F)nc4ccc(Cl)cc34)C2)cn1 [Example 15, 2-amino-N-[(1R,3S)-3-{[6-chloro-2-(trifluoromethyl)quinolin-4-yl]amino}cyclohexyl]pyrimidine-5-carboxamide]	–	< 100	140	140	36	1
O=C(N[C@@H]1CCC[C@H](Nc2cc(C(F)(F)F)nc3ccc(Cl)cc23)C1)c1cn(CC(F)(F)F)nc1Cl [Example 30, 3-chloro-N-((1R,3S)-3-((6-chloro-2-(trifluoromethyl)quinolin-4-yl)amino)cyclohexyl)-1-(2,2,2-trifluoroethyl)-1H-pyrazole-4-carboxamide]	< 100	< 100	150	150	13	0.5
CC(C)(O)Cn1cc(C(=O)N[C@@H]2CCC[C@H](Nc3cc(C(F)(F)F)nc4ccc(Cl)cc34)C2)c(Cl)n1 [Example 31, 3-chloro-N-[(1R,3S)-3-[[6-chloro-2-(trifluoromethyl)-4-quinolyl]amino]cyclohexyl]-1-(2-hydroxy-2-methylpropyl)pyrazole-4-carboxamide]	< 100	< 100	740	740	74	1.7
N#Cc1nn(CC(F)(F)F)cc1C(=O)N[C@@H]1CCC[C@H](Nc2cc(C(F)(F)F)nc3ccc(Cl)cc23)C1 [Example 32, N-[(1R,3S)-3-[[6-chloro-2-(trifluoromethyl)-4-quinolyl]amino]cyclohexyl]-3-cyano-1-(2,2,2-trifluoroethyl)pyrazole-4-carboxamide]	< 100	< 100	390	390	39	4.7

From US12129244B2, “Modulators of Mas-related G-protein receptor X2 and related products and methods” (Escient Pharmaceuticals, Inc., priority 2022, dated 2024)
